The source of these data is paper PMC9945734 (BMC Medicine, 2023).

Data set [1] has as its system PC-3 (KLF5 null) cells expressing KLF5. As to the kind of experiment: CCK-8 cell viability assay. In kind it is cell-based. Conditions: Homo sapiens, CCK-8, 48 h. How it is done: (§1) According to the manufacturer's instructions, cell viability was measured using a kit from Beyotime Biotechnology. Briefly, cells were seeded onto 96-well plates at 5 × 10^3 cells per well, incubated overnight, and then treated for 48 h with drugs at 0, 0.02, 0.05, 0.14, 0.41, 1.23, 3.7, 11.1, 33.3, and 100 μM. Four drugs were analyzed: furagin, nifuratel, nitazoxanide, and retapamulin. At the end of drug treatment, the medium was removed, the CCK-8 solution was added into each well at 100 μL/well and incubated for 1.5 h at 37°C, and the optical density (OD) was measured at 450 nm using a microplate reader (BioTek).
(Formazan colour is commonly taken as a measure of viable cells.)

Data set [2] has as its system PC-3 (KLF5 null) cells expressing KLF5^K369R. As to the kind of experiment: CCK-8 cell viability assay. The note with it: Homo sapiens, CCK-8, 48 h. In kind it is cell-based. How it is done:
as §1

Data set [3] relates to DU 145 (KLF5 null) cells expressing KLF5^K369R. Description: CCK-8 cell viability assay. The note with it: Homo sapiens, CCK-8, 48 h. In kind it is cell-based. How it is done:
as §1

Data set [4] relates to DU 145 (KLF5 null) cells expressing KLF5. Description: CCK-8 cell viability assay. In kind it is cell-based. Conditions: Homo sapiens, CCK-8, 48 h. On the procedure:
as §1

The test system of another data set is MMP9. Description: MMP9 immunohistochemical staining of bone metastases. In kind it is in vivo, Balb/c nude mice. Conditions: KLF5^K369Q-induced bone metastases. On the procedure: Immunohistochemical staining was conducted following established procedures. Briefly, 4-μm sections of bone tissues were deparaffinized in xylene and rehydrated in gradient ethanol. The endogenous antigen was retrieved by incubating slides in 10 mM sodium citrate buffer (Cat #: C1010, Solarbio, Beijing, China) overnight in an oven at 65°C. After antigen retrieving, tissue sections were incubated with 3% hydrogen peroxide at room temperature for 10 min to block the endogenous […] activity. They were then incubated in a blocking solution (0.1% albumin bovine V mixed with 10% goat serum) for 40 min, and a solution containing a primary antibody (MMP9, 1:1000, Cat #: ab76003, Abcam, Cambridge, UK; MYBL2, 1:100, Cat #: ab76009, Abcam) for 1.5 h. After rinsing with PBS for 3 times, slides were incubated with the secondary antibody solution for 15 min and then with the DAB solution using the MaxVision II HRP kit (Cat #: KIT-5920, MXB Biotechnologies, Fuzhou, China). Nuclei were counterstained with hematoxylin for 2 min. Slides were then dehydrated with gradient ethanol (75–100%) and xylene and mounted with coverslips using the quick-hardening mounting medium. All slides were scanned using an Aperio VERSA 8 Scanner System (Leica, Wetzlar, Germany) and analyzed using the Image J software (Image J 1.48v, NIH, Bethesda, MD, USA).

Data set [5] relates to RAW264.7 cells. As to the kind of experiment: CCK-8 cell viability assay. The note with it: concentrations smaller than 25 μM; 48 h. In kind it is cell-based.
Description: According to the manufacturer's instructions, cell viability was measured using a kit from Beyotime Biotechnology. Briefly, cells were seeded onto 96-well plates at 5 × 10^3 cells per well, incubated overnight, and then treated for 48 h with drugs at 0, 0.02, 0.05, 0.14, 0.41, 1.23, 3.7, 11.1, 33.3, and 100 μM. […] At the end of drug treatment, the medium was removed, the CCK-8 solution was added into each well at 100 μL/well and incubated for 1.5 h at 37°C, and the optical density (OD) was measured at 450 nm using a microplate reader (BioTek).
The target of another data set is T1, KLF5^K369R protein (Homo sapiens, UniProt Q13887, K369R).
T1 construct: made in house; host or cells: E. coli BL21 DE3
T1 sequence (Q13887 whole entry K369R): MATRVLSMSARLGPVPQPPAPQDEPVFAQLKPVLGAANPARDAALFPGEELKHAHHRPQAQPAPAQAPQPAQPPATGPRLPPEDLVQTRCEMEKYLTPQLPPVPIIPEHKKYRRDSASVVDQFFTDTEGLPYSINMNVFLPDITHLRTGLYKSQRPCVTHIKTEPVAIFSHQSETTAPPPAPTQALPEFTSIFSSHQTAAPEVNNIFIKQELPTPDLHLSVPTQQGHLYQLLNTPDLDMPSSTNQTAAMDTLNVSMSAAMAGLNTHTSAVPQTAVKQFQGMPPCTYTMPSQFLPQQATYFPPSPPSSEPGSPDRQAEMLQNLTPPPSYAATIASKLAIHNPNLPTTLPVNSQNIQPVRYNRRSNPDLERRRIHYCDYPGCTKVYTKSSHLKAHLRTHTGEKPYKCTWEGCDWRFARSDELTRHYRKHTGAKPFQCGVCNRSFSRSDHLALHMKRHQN
As to the kind of experiment: Fluorescence titration (quenching) of KLF5 protein. The note with it: read-out: binding constant Kd. How it is done:
(§2) Wild-type or mutant KLF5 protein at 1 μM in 2 mL PBS was measured for fluorescence spectrum using a fluorescence spectrometer (HORIBA, Kyoto, Japan), and the fluorescence spectra were obtained for wavelengths of 300–500 nm. NTZ with various concentration ranges and various increments were used in the analysis, including 0.1–1 μM with an increment of 0.1 μM, 1–5 μM with an increment of 0.5 μM, 5–10 μM with an increment of 1 μM, and 10–30 μM with an increment of 5 μM. The incubation with NTZ was for 5 s at room temperature. Data were processed and fitted to obtain the binding affinities using the Origin software (OriginLab, Northampton, MA, USA), and Kd values were determined by the responses at […] wavelength.

In the next data set the target is T2, KLF5^K369Q protein (Homo sapiens, UniProt Q13887, K369Q).
T2 construct: made in house; host or cells: E. coli BL21 DE3
T2 sequence (Q13887 whole entry K369Q): as the sequence (Q13887 whole entry K369R) above, with R369Q counted along it
Description: Fluorescence titration (quenching) of KLF5 protein. The note with it: read-out: binding constant Kd. On the procedure:
as §2

Data set [6] concerns RAW264.7 cells. Description: Osteoclast differentiation with conditioned medium from NTZ-treated PC-3-KQ cells. In kind it is cell-based. The note with it: CM from PC-3-KQ cells treated at 2.5 or 5 μM for 36 h; RANKL 10 ng/mL; 7 days. On the procedure: In the second in vitro assay, we used conditioned medium (CM) from NTZ-treated Ac-KLF5-expressing cells. PC-3-KQ cells were seeded in 6-well plates at 1 × 10^5 cells per well and cultured overnight. […] Subsequently, the conditioned media (CM) was collected from each group, centrifugated, filtered, aliquoted, and stored at -80°C for further use or used immediately in the co-cultured experiments. […] RAW264.7 cells in 96-well plates with 24-h culture were incubated with the CM-containing medium for 7 days, with the medium replaced every 2 days. The TRAP staining assay was performed to determine the number of differentiated osteoclasts according to the manufacturer's instructions.

Turning to `CC(=O)Oc1ccccc1C(=O)Nc1ncc([N+](=O)[O-])s1` [Nitazoxanide], the IC50 in [1] was 7 ± 0.7 µM; in data set [2], 11.4 ± 1 µM; in data set [3], 49.2 ± 10.1 µM; in data set [4] it was 55.6 ± 1.4 µM. Further, in the data set on MMP9, the “MMP9 protein expression (IHC)” value was “decrease of MMP9 protein expression”. Also, in the data set on RAW264.7 cells [5], the “cytotoxicity (cell viability)” value was “did not exhibit detectable cytotoxicity”. Moreover, the Kd on KLF5^K369R protein was 7.3 µM; at KLF5^K369Q protein, 5.4 µM. Further, the “number of TRAP^+ multinucleated cells” value in the data set with RAW264.7 cells [6] is “significantly reduced”.

The term IC50 denotes the concentration at which inhibition is half-maximal. A higher IC50 goes with a need for much substance. By Kd is commonly meant the free concentration of one partner at which half of the binding sites on the other are occupied at equilibrium, for simple one-to-one binding.
